From PubChem BioAssay (NCI)
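Protocol summary: plate cells (96-well), add compound at 5 concentrations, incubate 48 h, interpolate endpoints linearly. TGI marks complete inhibition of growth.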

Legend:
Assay in all cases: inhibition of tumour cell growth, NCI panel, 48 h
OVCAR-3 ovarian = tested on: OVCAR-3 ovarian
NCI-H23 lung = tested on: NCI-H23 lung
HOP-92 NSCLC = tested on: HOP-92 NSCLC
A498 renal = tested on: A498 renal
NCI/ADR-RES ovarian = tested on: NCI/ADR-RES ovarian
EKVX NSCLC = tested on: EKVX NSCLC
KM12 colon = tested on: KM12 colon
786-0 renal = tested on: 786-0 renal
HOP-62 NSCLC = tested on: HOP-62 NSCLC
MALME-3M melanoma = tested on: MALME-3M melanoma
SK-MEL-5 melanoma = tested on: SK-MEL-5 melanoma
MOLT-4 leukemia = tested on: MOLT-4 leukemia
OVCAR-5 ovarian = tested on: OVCAR-5 ovarian
M14 melanoma = tested on: M14 melanoma
DU-145 prostate = tested on: DU-145 prostate
K-562 leukemia = tested on: K-562 leukemia
MDA-MB-435 = tested on: MDA-MB-435
COLO 205 colon = tested on: COLO 205 colon
RPMI-8226 leukemia = tested on: RPMI-8226 leukemia
U251 CNS = tested on: U251 CNS
UACC-257 melanoma = tested on: UACC-257 melanoma
HL-60(TB) leukemia = tested on: HL-60(TB) leukemia
SN12C renal = tested on: SN12C renal
SNB-19 CNS = tested on: SNB-19 CNS
UO-31 renal = tested on: UO-31 renal
OVCAR-4 ovarian = tested on: OVCAR-4 ovarian
NCI-H226 lung = tested on: NCI-H226 lung
CCRF-CEM leukemia = tested on: CCRF-CEM leukemia
HT29 colon = tested on: HT29 colon
RXF 393 renal = tested on: RXF 393 renal
MCF7 breast = tested on: MCF7 breast
NCI-H460 lung = tested on: NCI-H460 lung
TK-10 renal = tested on: TK-10 renal
PC-3 prostate = tested on: PC-3 prostate
A549 NSCLC = tested on: A549 NSCLC
MDA-MB-231 breast = tested on: MDA-MB-231 breast
SR leukemia = tested on: SR leukemia
UACC-62 melanoma = tested on: UACC-62 melanoma
LOX IMVI melanoma = tested on: LOX IMVI melanoma
HS 578T breast = tested on: HS 578T breast
SW-620 colon = tested on: SW-620 colon
IGROV1 ovarian = tested on: IGROV1 ovarian
SK-MEL-2 melanoma = tested on: SK-MEL-2 melanoma
CAKI-1 renal = tested on: CAKI-1 renal
SNB-75 CNS = tested on: SNB-75 CNS
SF-295 CNS = tested on: SF-295 CNS
SK-OV-3 ovarian = tested on: SK-OV-3 ovarian
SF-268 CNS = tested on: SF-268 CNS
NCI-H522 lung = tested on: NCI-H522 lung
T-47D breast = tested on: T-47D breast
SF-539 CNS = tested on: SF-539 CNS
HCT-116 colon = tested on: HCT-116 colon
HCC-2998 colon = tested on: HCC-2998 colon
SK-MEL-28 melanoma = tested on: SK-MEL-28 melanoma
OVCAR-8 ovarian = tested on: OVCAR-8 ovarian
BT-549 breast = tested on: BT-549 breast
HCT-15 colon = tested on: HCT-15 colon
ACHN renal = tested on: ACHN renal

For `CCCCCCN1C(=O)CC(=O)N(CCCCCC)S1(=O)=O`, the TGI (OVCAR-3 ovarian) was 52.1 µM, the TGI (NCI-H23 lung) was 75.2 µM and the TGI (HOP-92 NSCLC) was 25.6 µM. It also gave a TGI (A498 renal) of 27.8 µM, a TGI (NCI/ADR-RES ovarian) of 49.5 µM and a TGI (EKVX NSCLC) of 41 µM. It also gave a TGI (KM12 colon) of over 100 µM, a TGI (786-0 renal) of 35.8 µM and a TGI (HOP-62 NSCLC) of 35.9 µM. It also gave a TGI (MALME-3M melanoma) of 72.8 µM, a TGI (SK-MEL-5 melanoma) of 44.2 µM and a TGI (MOLT-4 leukemia) of 51.6 µM. The TGI (OVCAR-5 ovarian) was 41.1 µM, the TGI (M14 melanoma) was over 100 µM and the TGI (DU-145 prostate) was over 100 µM. It also gave a TGI (K-562 leukemia) of over 100 µM, a TGI (MDA-MB-435) of 53.5 µM and a TGI (COLO 205 colon) of 34.6 µM. For the same molecule, the TGI (RPMI-8226 leukemia) was 47.2 µM, the TGI (U251 CNS) was 33.1 µM and the TGI (UACC-257 melanoma) was over 100 µM. The TGI (HL-60(TB) leukemia) was 48.9 µM, the TGI (SN12C renal) was 37.1 µM and the TGI (SNB-19 CNS) was over 100 µM. For the same molecule, the TGI (UO-31 renal) was 3.46 µM, the TGI (OVCAR-4 ovarian) was 41 µM and the TGI (NCI-H226 lung) was over 100 µM. It also gave a TGI (CCRF-CEM leukemia) of 40.9 µM, a TGI (HT29 colon) of 46.8 µM and a TGI (RXF 393 renal) of 34.1 µM. The TGI (MCF7 breast) was over 100 µM, the TGI (NCI-H460 lung) was over 100 µM and the TGI (TK-10 renal) was 41.6 µM. The TGI (PC-3 prostate) was 60 µM, the TGI (A549 NSCLC) was over 100 µM and the TGI (MDA-MB-231 breast) was 33.2 µM. It also gave a TGI (SR leukemia) of 61 µM, a TGI (UACC-62 melanoma) of 34.3 µM and a TGI (LOX IMVI melanoma) of 36 µM. The TGI (HS 578T breast) was 45.9 µM, the TGI (SW-620 colon) was 41.9 µM and the TGI (IGROV1 ovarian) was 25.9 µM. The TGI (SK-MEL-2 melanoma) was 28.5 µM, the TGI (CAKI-1 renal) was 50.7 µM and the TGI (SNB-75 CNS) was 32.7 µM. For the same molecule, the TGI (SF-295 CNS) was 35.9 µM, the TGI (SK-OV-3 ovarian) was 51.5 µM and the TGI (SF-268 CNS) was 36.9 µM. It also gave a TGI (NCI-H522 lung) of 27.4 µM, a TGI (T-47D breast) of over 100 µM and a TGI (SF-539 CNS) of 41.9 µM. For the same molecule, the TGI (HCT-116 colon) was over 100 µM.
With `O=C(CC(=O)N1N=C(N2c3ccccc3Sc3ccccc32)CC1c1ccccc1)Nc1ccccc1Cl` (stereo not drawn) the TGI (OVCAR-3 ovarian) was over 100 µM, the TGI (NCI-H23 lung) was over 100 µM and the TGI (HOP-92 NSCLC) was over 100 µM. It also gave a TGI (A498 renal) of over 100 µM, a TGI (NCI/ADR-RES ovarian) of over 100 µM and a TGI (EKVX NSCLC) of over 100 µM. The TGI (HCC-2998 colon) was over 100 µM, the TGI (KM12 colon) was over 100 µM and the TGI (786-0 renal) was over 100 µM. It also gave a TGI (SK-MEL-28 melanoma) of over 100 µM, a TGI (HOP-62 NSCLC) of over 100 µM and a TGI (OVCAR-8 ovarian) of over 100 µM. The TGI (SK-MEL-5 melanoma) was over 100 µM, the TGI (MOLT-4 leukemia) was over 100 µM and the TGI (OVCAR-5 ovarian) was over 100 µM. It also gave a TGI (M14 melanoma) of over 100 µM, a TGI (DU-145 prostate) of over 100 µM and a TGI (K-562 leukemia) of over 100 µM. It also gave a TGI (MDA-MB-435) of over 100 µM, a TGI (COLO 205 colon) of over 100 µM and a TGI (RPMI-8226 leukemia) of over 100 µM. The TGI (U251 CNS) was over 100 µM, the TGI (UACC-257 melanoma) was over 100 µM and the TGI (HL-60(TB) leukemia) was over 100 µM. It also gave a TGI (SN12C renal) of over 100 µM, a TGI (SNB-19 CNS) of over 100 µM and a TGI (UO-31 renal) of over 100 µM. It also gave a TGI (OVCAR-4 ovarian) of over 100 µM, a TGI (NCI-H226 lung) of over 100 µM and a TGI (CCRF-CEM leukemia) of over 100 µM. The TGI (BT-549 breast) was over 100 µM, the TGI (HT29 colon) was over 100 µM and the TGI (RXF 393 renal) was over 100 µM. The TGI (NCI-H460 lung) was over 100 µM, the TGI (TK-10 renal) was over 100 µM and the TGI (PC-3 prostate) was over 100 µM. The TGI (HCT-15 colon) was over 100 µM, the TGI (A549 NSCLC) was over 100 µM and the TGI (MDA-MB-231 breast) was over 100 µM. For the same molecule, the TGI (UACC-62 melanoma) was over 100 µM, the TGI (HS 578T breast) was over 100 µM and the TGI (SW-620 colon) was over 100 µM. The TGI (IGROV1 ovarian) was over 100 µM, the TGI (ACHN renal) was over 100 µM and the TGI (SK-MEL-2 melanoma) was over 100 µM. For the same molecule, the TGI (CAKI-1 renal) was over 100 µM, the TGI (SNB-75 CNS) was over 100 µM and the TGI (SF-295 CNS) was over 100 µM. For the same molecule, the TGI (SF-268 CNS) was over 100 µM, the TGI (NCI-H522 lung) was over 100 µM and the TGI (T-47D breast) was over 100 µM. For the same molecule, the TGI (SF-539 CNS) was over 100 µM and the TGI (HCT-116 colon) was over 100 µM.
With `c1ccc(Cc2cc(-c3ccccc3)n[nH]2)cc1` the TGI (OVCAR-3 ovarian) was 16.8 µM, the TGI (NCI/ADR-RES ovarian) was 49.4 µM and the TGI (EKVX NSCLC) was 27.5 µM. It also gave a TGI (KM12 colon) of 28.8 µM, a TGI (786-0 renal) of 43.4 µM and a TGI (SK-MEL-28 melanoma) of 25.8 µM. It also gave a TGI (HOP-62 NSCLC) of 92.9 µM, a TGI (OVCAR-8 ovarian) of 30.9 µM and a TGI (MOLT-4 leukemia) of 23.1 µM. For the same molecule, the TGI (OVCAR-5 ovarian) was 47.9 µM, the TGI (M14 melanoma) was 80.1 µM and the TGI (DU-145 prostate) was 26.2 µM. The TGI (K-562 leukemia) was 25.6 µM, the TGI (MDA-MB-435) was 22.8 µM and the TGI (COLO 205 colon) was 31.2 µM. The TGI (U251 CNS) was 27.9 µM, the TGI (UACC-257 melanoma) was 31.5 µM and the TGI (HL-60(TB) leukemia) was 39.3 µM. For the same molecule, the TGI (SN12C renal) was 26.3 µM, the TGI (SNB-19 CNS) was 82.7 µM and the TGI (UO-31 renal) was 49.8 µM. It also gave a TGI (NCI-H226 lung) of 33.5 µM, a TGI (CCRF-CEM leukemia) of 27 µM and a TGI (HT29 colon) of 23.2 µM. The TGI (RXF 393 renal) was 22.1 µM, the TGI (MCF7 breast) was 40.3 µM and the TGI (NCI-H460 lung) was 33.3 µM. For the same molecule, the TGI (TK-10 renal) was 42.5 µM, the TGI (PC-3 prostate) was 34.2 µM and the TGI (HCT-15 colon) was 53 µM. For the same molecule, the TGI (A549 NSCLC) was 26 µM, the TGI (MDA-MB-231 breast) was 25.8 µM and the TGI (SR leukemia) was 32.3 µM. The TGI (UACC-62 melanoma) was 27.4 µM, the TGI (LOX IMVI melanoma) was 28.3 µM and the TGI (HS 578T breast) was 36.7 µM. For the same molecule, the TGI (SW-620 colon) was 28.7 µM, the TGI (IGROV1 ovarian) was 34 µM and the TGI (ACHN renal) was 36.4 µM. It also gave a TGI (SK-MEL-2 melanoma) of 31.8 µM, a TGI (CAKI-1 renal) of 32.9 µM and a TGI (SNB-75 CNS) of 15.8 µM. It also gave a TGI (SF-295 CNS) of 19.5 µM, a TGI (SK-OV-3 ovarian) of over 100 µM and a TGI (SF-268 CNS) of 57.6 µM. For the same molecule, the TGI (NCI-H522 lung) was 33.2 µM, the TGI (T-47D breast) was over 100 µM and the TGI (HCT-116 colon) was 88.9 µM.
